In patent US20250288584A1, “COMBINATIONS COMPRISING POSITIVE ALLOSTERIC MODULATORS OR ORTHOSTERIC AGONISTS OF METABOTROPIC GLUTAMATERGIC RECEPTOR SUBTYPE 2 AND THEIR USE” (JANSSEN PHARMACEUTICA NV, priority 2014, published 2025):
Like-named read-outs stand apart in the source and are kept apart here.

Experiments:
human mGlu2 receptor = biological target: T1, human mGlu2 receptor (Homo sapiens, UniProt Q14416); assay: [35S]GTPγS binding assay, mGluR2 PAM; format: biochemical; conditions: for EC50 / GTPγS-hmGluR2 PAM pEC50: in presence of EC20 glutamate; for EC50: read-out: GTPγS-hmGluR2 PAM pEC50 (converted)
T1 construct: expressed in transfected cells; host or cells: CHO cells
T1 sequence (Q14416 19-872): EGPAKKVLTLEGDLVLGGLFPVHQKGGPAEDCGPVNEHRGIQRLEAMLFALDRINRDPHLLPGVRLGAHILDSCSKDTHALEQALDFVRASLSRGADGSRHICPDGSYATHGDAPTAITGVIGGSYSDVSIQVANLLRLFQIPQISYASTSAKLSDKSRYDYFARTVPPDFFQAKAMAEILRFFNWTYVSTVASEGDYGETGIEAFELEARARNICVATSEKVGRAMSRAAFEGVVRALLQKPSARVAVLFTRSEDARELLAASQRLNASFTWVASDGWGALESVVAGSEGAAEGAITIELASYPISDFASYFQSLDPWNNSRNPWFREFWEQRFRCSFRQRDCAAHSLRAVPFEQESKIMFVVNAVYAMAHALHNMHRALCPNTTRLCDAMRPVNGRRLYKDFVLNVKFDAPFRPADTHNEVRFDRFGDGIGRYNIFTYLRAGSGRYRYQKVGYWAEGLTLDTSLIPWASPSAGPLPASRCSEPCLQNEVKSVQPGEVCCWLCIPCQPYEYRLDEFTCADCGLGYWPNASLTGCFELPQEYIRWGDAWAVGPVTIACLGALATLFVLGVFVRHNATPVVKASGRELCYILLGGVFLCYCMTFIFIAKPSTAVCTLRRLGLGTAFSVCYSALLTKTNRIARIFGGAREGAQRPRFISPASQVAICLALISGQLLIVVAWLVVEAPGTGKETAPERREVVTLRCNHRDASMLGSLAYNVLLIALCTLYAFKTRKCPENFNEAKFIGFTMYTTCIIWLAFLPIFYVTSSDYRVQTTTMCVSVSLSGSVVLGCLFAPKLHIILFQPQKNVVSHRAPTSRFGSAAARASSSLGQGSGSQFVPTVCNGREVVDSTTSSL
Experimental: The [^35S]GTPγS binding assay is a functional membrane-based assay used to study G-protein coupled receptor (GPCR) function whereby incorporation of a non-hydrolysable form of GTP, [^35S]GTPγS (guanosine 5′-triphosphate, labelled with […] ^35S), is measured.
Cells were then collected by scraping in PBS and cell suspension was centrifuged (10 min at 4000 RPM in benchtop centrifuge). Supernatant was discarded and pellet gently resuspended in 50 mM Tris-HCl, pH 7.4 by mixing with a vortex and pipetting up and down. The suspension was centrifuged at 16,000 RPM (Sorvall RC-5C plus rotor SS-34) for 10 minutes and the supernatant discarded. The pellet was homogenized in 5 mM Tris-HCl, pH 7.4 using an ultra-turrax homogenizer and centrifuged again (18,000 RPM, 20 min, 4° C.). The final pellet was resuspended in 50 mM Tris-HCl, pH 7.4 and stored at-80° C. in appropriate aliquots before use. Protein concentration was determined by the Bradford method (Bio-Rad, USA) with bovine serum albumin as standard.
Measurement of mGluR2 positive allosteric modulatory activity of test compounds was performed as follows. Test compounds and glutamate were diluted in assay buffer containing 10 mM HEPES acid, 10 mM HEPES salt, pH 7.4, 100 mM NaCl, 3 mM MgCl2 and 10 μM GDP. Human mGlu2 receptor-containing membranes were thawed on ice and diluted in assay buffer supplemented with 14 μg/ml saponin. Membranes were pre-incubated with compound alone or together with a predefined (˜EC20) concentration of glutamate (PAM assay) for 30 min at 30° C. After addition of [^35S] GTPγS (f.c. 0.1 nM), assay mixtures were shaken briefly and further incubated to allow [^35S] GTPγS incorporation on activation (30 minutes, 30° C.). Final assay mixtures contained 7 μg of membrane protein in 10 mM HEPES acid, 10 mM HEPES salt, pH 7.4, 100 mM NaCl, 3 mM MgCl2, 10 µM GDP and 2 μg/ml saponin. Total reaction volume was 200 μl. Reactions were terminated by rapid filtration through Unifilter-96 GF/B plates (Perkin Elmer, Massachusetts, USA) using a 96-well filtermate universal harvester. Filters were washed 6 times with ice-cold 10 mM NaH2PO4/10 mM Na2HPO4, pH 7.4. Filters were then air-dried, and 40 μl of liquid scintillation cocktail (Microscint-O) was added to each well. Membrane-bound radioactivity was counted in a Microplate Scintillation and Luminescence Counter from Perkin Elmer.
The concentration-response curves of representative compounds of the present invention-obtained in the presence of EC20 of mGluR2 agonist glutamate to determine positive allosteric modulation (PAM)—were generated using the Lexis software interface (developed at J&J). Data were calculated as % of the control glutamate response, defined as the maximal response that is generated upon addition of glutamate alone. Sigmoid concentration-response curves plotting these percentages versus the log concentration of the test compound were analyzed using non-linear regression analysis. The concentration producing half-maximal effect is then calculated as EC50. The pEC50 values below were calculated as the −log EC50, when the EC50 is expressed in M. Emax is defined as relative maximal effect (i.e. maximal % effect relative to the control glutamate response).

[1] = Minimal motor impairment (rotarod); format: in vivo, mice; conditions: [CAS 1092453-15-0] 20 mg/kg, alone
Experimental: Acute MMI was assessed by a combination of direct observations of the animal for overt symptoms of the animal's neurological or muscular function. In mice, the rotarod procedure was used to disclose minimal muscular or neurological impairment. When a mouse is placed on a rod that rotates at a speed of 6 rpm, the animal can maintain its equilibrium for long periods of time. The animal was considered toxic if it fell off this rotating rod three times during a 1 min period.
In the determination of an ED50 or TD50 for each test compound, the first dose administered is usually the same dose as that used in a successful TPE determination.
If the initial dose employed was effective or toxic in more than 50% of animals, the next dose would be one-half that of the initial dose; if the initial dose was effective or toxic in less than 50% of animals, the following dose would be twice that of the initial dose. Third and fourth doses were selected to produce an evenly spaced dose response line. There should be a minimum of 4 points either including or lying between 0 and 100%.

[2] = tested on: 6 Hz (44 mA) psychomotor seizures; assay: 6 Hz psychomotor seizure test, 44 mA (alone, combination with LEV, isobolographic study); format: in vivo, mice; conditions: Mus musculus, 6 Hz (44 mA); [CAS 1092453-15-0] 20 mg/kg, alone; read-out: # protected/# tested (converted)
Experimental: Test compounds were administered using an optimal fluid volume to body fluid ratio. Test compounds were administered to mice in a volume of 0.01 mL/g of body weight (White H. S., et al., General Principles: Experimental selection, quantification, and evaluation of antiepileptic drugs, in Antiepileptic Drugs, Fourth Edition, […], and B. S. Meldrum, Editors. 1995, Raven Press, Ltd.: New York, pp. 99-110). For subcutaneous (s.c.) administration, the test compounds were administered into a loose fold of skin along the back of the animal except compound 6-b, which was administered orally (p.o). […] The animals were maintained on an adequate diet (Prolab RMH 3000) and allowed free access to food and water, except during the short time they were removed from their cage for testing. Animals newly received in the laboratory were allowed sufficient time to correct for possible food and water restriction incurred during transit before being employed in testing. All mice were housed in plastic cages in specially constructed rooms with controlled humidity, exchange of air and controlled lighting (12 hours on-12 hours off). The animals were housed, fed, and handled in a manner consistent with the recommendations in the National Council Publication, “Guide for the Care and Use of Laboratory Animals”. In the determination of an ED50 or TD50 for each test compound, the first dose administered is usually the same dose as that used in a successful TPE determination. […] Third and fourth doses were selected to produce an evenly spaced dose response line. […] The 6 Hz seizure test is used as a model of pharmacoresistant limbic seizures. […] Focal seizures were induced in mice via corneal stimulation (6 Hz, 0.2 msec rectangular pulse, 3 sec duration; Barton et al. 2001). Mice were tested at either 32 mA or 44 mA. […] The seizures that arise from corneal stimulation in this assay are characterized by a minimal clonic phase followed by stereotyped automatistic behaviors including stun, forelimb clonus, twitching of the vibrissae, and Straub-tail. Animals not displaying these behaviors were considered protected. […] In addition to recording the efficacy and toxicity data for these compounds alone or in combination, both plasma and brain samples were collected from each of the groups for pharmacokinetic/pharmacokinetic analysis. No pharmacokinetic interaction was observed based on compound levels in the plasma and brain samples (data not shown). Isobolographic studies were conducted for the combined administration of Co. […] Studies were conducted according to previously described methods (Madsen et al. 2011). Initial ED50 values were determined for both Co. […] Co. […] Doses used were proportional to calculated ED50 values. […] Experimental treatment doses (see Table 4) were based on theoretical values and adjusted according to observed effects. Experimentally determined ED50 (+SEM) values for each fixed dose-ratio combination were compared to the theoretical values (t-test) for statistical purposes. […] Subsequently, the experimental combined doses were determined for the same paradigms in the 6 Hz seizure test (Table 4 below).

[3] = maximal % effect relative to control glutamate response, EC20 glutamate, read-out: GTPγS-hmGluR2 PAM Emax

| SMILES | Emax (human mGlu2 receptor; [3]) [%] | EC50 (human mGlu2 receptor) [µM] | other results |
| --- | --- | --- | --- |
| COc1cc(F)ccc1O[C@@H](C)c1ccn2c(CC3CC3)nnc2c1C(F)(F)F [Co. No. 12-b, 3-(Cyclopropylmethyl)-7-[(1S)-1-(4-fluoro-2-methoxyphenoxy)ethyl]-8-(trifluoromethyl)[1,2,4]triazolo[4,3-a]pyridine] | 178 |  |  |
| CC1(C)OC2(CCN(c3ccn4c(CC(F)(F)F)nnc4c3Cl)CC2)c2ccccc21 [Co. No. 12] | 261 |  |  |
| O=c1c(Cl)c(N2CCC(c3ccc(N4CCOCC4)cc3)CC2)ccn1CC1CC1 [Co. No. 13-a] | 212 | 0.214 |  |
| Cc1ccc(O[C@@H](C)c2ccn3c(CC4CC4)nnc3c2C(F)(F)F)c(Cl)c1 [Co. No. 13-b, 7-[(1S)-1-(2-Chloro-4-methylphenoxy)ethyl]-3-(cyclopropylmethyl)-8-(trifluoromethyl)[1,2,4]triazolo[4,3-a]pyridine] | 280 |  |  |
| Fc1cnc(N2CCN(Cc3ccn4c(CC5CC5)nnc4c3C(F)(F)F)CC2)c(F)c1 [Co. No. 13] | 278 | 0.126 |  |
| Cc1cc(F)ccc1O[C@@H](C)c1ccn2c(CC3CC3)nnc2c1C(F)(F)F [Co. No. 14-b, 3-(Cyclopropylmethyl)-7-[(1S)-1-(4-fluoro-2-methylphenoxy)ethyl]-8-(trifluoromethyl)[1,2,4]triazolo[4,3-a]pyridine] | 281 |  |  |
| C[C@H](Oc1c(F)cc(F)cc1F)c1ccn2c(CC3CC3)nnc2c1C(F)(F)F [Co. No. 15-b, 3-(Cyclopropylmethyl)-8-(trifluoromethyl)-7-[(1S)-1-(2,4,6-trifluorophenoxy)ethyl][1,2,4]triazolo[4,3-a]pyridine] |  |  | Emax (human mGlu2 receptor; read-out: GTPγS-hmGluR2 PAM Emax, maximal % effect relative to control glutamate response, EC20 glutamate): 293% |
| O=c1c(Cl)c(N2CCC(c3cccc(C(F)(F)F)c3)CC2)ccn1CC1CC1 [Co. No. 16-a] | 223 |  | GTPγS-hmGluR2 PAM pEC50 (human mGlu2 receptor): 7.12 |
| O=c1c(Cl)c(N2CCC(F)(c3ccccc3)CC2)ccn1CC1CC1 [Co. No. 17-a] | 261 | 0.288 |  |
| O=c1c(Cl)c(N2CCC(OCCF)(c3ccccc3)CC2)ccn1CC1CC1 [Co. No. 20-a] | 243 |  |  |
| O=c1c(Cl)c(N2CCC(CF)(c3ccccc3)CC2)ccn1CC1CC1 [Co. No. 21-a] | 207 |  |  |
| CCCCn1ccc(N2CCC(CO)(c3ccccc3)CC2)c(Cl)c1=O [Co. No. 22-a] | 259 |  |  |
| O=c1c(Cl)c(N2CCC(F)(c3ccccc3)CC2)ccn1CCC1CC1 [Co. No. 26-a] | 248 | 0.316 |  |
| CCCc1nnc2c(C(F)(F)F)c(C(C)Oc3ccc(F)cc3F)ccn12 (stereo not drawn) [Co. No. 30-b, 7-[1-(2,4-Difluorophenoxy)ethyl]-3-propyl-8-(trifluoromethyl)[1,2,4]triazolo[4,3-a]pyridine] | 227 |  |  |
| CCCCn1ccc(N2CCC3(CC2)OCc2ccccc23)c(Cl)c1=O [Co. No. 32-a] | 347 | 0.219 |  |
| CCCCn1ccc(N2CCC3(CC2)COc2ccccc23)c(Cl)c1=O [Co. No. 33-a] | 362 | 0.263 |  |
| Cc1cc(-c2nc(CN3CCNCC3)no2)cc2c1C(=O)N(Cc1ccc(OC(F)(F)F)cc1)C2 [[CAS 1092453-15-0]] |  |  | Emax (human mGlu2 receptor; GTPγS assay, read-out: Emax): 197%; # rotarod motor impairment/# tested [1]: 0/8; responders at 20 mg/kg [2]: 0% |

More lines, main results first:

| Emax (human mGlu2 receptor; [3]) [%] | EC50 (human mGlu2 receptor) [µM] | SMILES | other results |
| --- | --- | --- | --- |
| 259 |  | O=c1c(Cl)c(N2CCC(c3ccc(F)cc3F)CC2)ccn1CC1CC1 [Co. No. 14-a] | GTPγS-hmGluR2 PAM pEC50 (human mGlu2 receptor): 6.92 |
| 253 |  | O=c1c(Cl)c(N2CCC(c3ccccc3Cl)CC2)ccn1CC1CC1 [Co. No. 15-a] | GTPγS-hmGluR2 PAM pEC50 (human mGlu2 receptor): 7 |
| 240 |  | CC(C)Cn1ccc(N2CCC(c3ccccc3)CC2)c(Cl)c1=O [Co. No. 19-a] | GTPγS-hmGluR2 PAM pEC50 (human mGlu2 receptor): 6.71 |
| 203 |  | CC(C)CCn1ccc(N2CCC(F)(c3ccccc3)CC2)c(Cl)c1=O [Co. No. 23-a] | GTPγS-hmGluR2 PAM pEC50 (human mGlu2 receptor): 6.58 |
| 258 |  | CC(C)CCn1ccc(N2CCC(c3ccc(F)cc3F)CC2)c(Cl)c1=O [Co. No. 24-a] | GTPγS-hmGluR2 PAM pEC50 (human mGlu2 receptor): 6.91 |
| 284 | 0.331 | CCCCn1ccc(N2CCC(c3ccc(C(C)(C)O)cc3)CC2)c(Cl)c1=O [Co. No. 27-a] |  |
| 297 | 0.11 | CCCCn1ccc(N2CCC(c3ccccc3C(C)(C)O)CC2)c(Cl)c1=O [Co. No. 28-a] |  |
| 317 | 0.107 | CCCCn1ccc(N2CCC(c3ccc(C(C)(C)O)cc3F)CC2)c(Cl)c1=O [Co. No. 29-a] |  |
